pIC50: −log10 of the molar value.
The compounds below were run against T1, pY705-STAT3 in PBMC (Homo sapiens, UniProt P40763) (assay: MSD-pSTAT-PBMC Assay (pSTAT3, IL-6 stimulated)). Conditions: PBMC, compound 3 hrs, then 10 ng/mL IL-6 for 10 min; Table 115; read-out: STAT3.
T1 construct: Cryopreserved Peripheral Blood Mononuclear Cells (PBMC) are from AllCells; host or cells: cryopreserved PBMC
T1 sequence (P40763 whole entry): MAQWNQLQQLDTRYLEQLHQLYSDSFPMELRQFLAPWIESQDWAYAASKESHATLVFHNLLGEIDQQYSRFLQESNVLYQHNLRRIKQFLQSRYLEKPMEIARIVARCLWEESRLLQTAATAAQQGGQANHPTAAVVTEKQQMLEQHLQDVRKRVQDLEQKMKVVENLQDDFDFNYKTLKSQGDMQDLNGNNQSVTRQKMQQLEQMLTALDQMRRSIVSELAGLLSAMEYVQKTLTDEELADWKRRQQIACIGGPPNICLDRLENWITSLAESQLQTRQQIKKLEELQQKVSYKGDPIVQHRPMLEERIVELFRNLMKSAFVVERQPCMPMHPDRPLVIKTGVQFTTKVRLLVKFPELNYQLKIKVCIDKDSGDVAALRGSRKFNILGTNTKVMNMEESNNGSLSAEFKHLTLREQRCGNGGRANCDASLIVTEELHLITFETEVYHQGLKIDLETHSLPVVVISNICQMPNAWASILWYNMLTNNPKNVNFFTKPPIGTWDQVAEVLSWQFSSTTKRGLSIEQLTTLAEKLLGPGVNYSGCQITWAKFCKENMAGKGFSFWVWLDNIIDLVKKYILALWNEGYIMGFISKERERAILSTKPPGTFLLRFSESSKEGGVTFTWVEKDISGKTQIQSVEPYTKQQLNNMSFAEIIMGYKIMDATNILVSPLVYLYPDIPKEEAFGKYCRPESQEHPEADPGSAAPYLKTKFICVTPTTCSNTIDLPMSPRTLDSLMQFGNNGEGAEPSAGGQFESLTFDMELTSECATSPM
Type: cell-based
Excerpt: Cryopreserved Peripheral Blood Mononuclear Cells (PBMC) are from AllCells. Recombinant Human IL-4 and IL-6 are from Peprotech. Mouse monoclonal anti-STAT3 antibody, rabbit monoclonal anti-pY705-STAT3 antibody, rabbit monoclonal Anti-pY641-STAT6 antibody, and lysis buffer are from Cell Signaling Technology (CST). Mouse monoclonal anti-STAT6 antibody is from BioLegend. Assay plates, blocker, and anti-rabbit secondary antibody are from Meso Scale Discovery (MSD).
Cyropreserved PBMCs were thawed out and allowed to recover overnight in IMDM+10% heat-inactivated FBS prior to plating 50,000 (STAT3) or 25,000 (STAT6) cells per well in 96-well U-bottom tissue culture plates. Cells were treated with compound for 3 hrs, then stimulated with 10 ng/mL IL-6 (STAT3) or 1 ng/mL IL-4 (STAT6) for 10 min. Cells were then spun down and washed with ice-cold PBS prior to lysing the cell pellet with 1× lysis buffer (CST) with 1× HALT protease and phosphatase inhibitor cocktail (Thermo). Lysates were transferred to and incubated overnight at 4° C. with shaking in QuickPlex 96-well high bind assay plates (MSD) pre-coated overnight with 30 μL per well of 0.6 μg/mL mouse monoclonal anti-STAT3 antibody (STAT3) or 2 μg/mL mouse monoclonal anti-STAT6 antibody (STAT6) in 1× PBS, and pre-blocked for 1 hour with 3% Blocker-A (MSD). Captured protein in the assay plates were then washed and probed with 25 μL per well of […] rabbit monoclonal anti-pY705-STAT3 antibody (STAT3) or 0.18 μg/ml rabbit monoclonal Anti-pY641-STAT6 antibody (STAT6) in 1% Blocker-A for 1 hour at room temperature with shaking, then washed and probed with 25 ul per well of 1 ug/ml Sulfo-TAG Labeled Goat Anti-Rabbit Antibody (MSD) in 1% Blocker-A for 1 hour at room temperature with shaking. Assay plates were then washed and 150 μL of 1× Read Buffer-T (MSD) was added to each well prior to reading on an SQ120 MSD Plate Reader. Assay signal from each sample was subtracted by the signal from unstimulated control wells and normalized to DMSO control wells. IC50 values were calculated using Graph Pad Prism Dose-Response Nonlinear Regression with variable slope. For both pSTAT3 and pSTAT6 A=≤100 nM; B 100-1000 nM; C=>1000-3000 nM; D=>3 μM; and NT=Not Tested.
With CC(C)OC(=O)OCOP(=O)(Cc1ccc2[nH]c(C(=O)N[C@H]3CCC[C@H]4CC[C@@H](C(=O)N5CC(c6cccnc6)C5)N4C3=O)cc2c1)OCOC(=O)OC(C)C [Compound 965, diisopropyl (((((2-(((3S,6S,9aS)-5-oxo-3-(3-(pyridin-3-yl)azetidine-1-carbonyl)octahydro-1H-pyrrolo[1,2-a]azepin-6-yl)carbamoyl)-1H-indol-5-yl)methyl)phosphoryl)bis(oxy))bis (methylene)) bis(carbonate)] the pIC50 was 6.00 to 7.00. With CCCCOC(=O)[C@H](C)NP(=O)(Cc1ccc2sc(C(=O)N[C@H]3CCC[C@H]4CC[C@@H](C(=O)N5CC(c6ncccc6C)C5)N4C3=O)cc2c1)Oc1ccccc1 (stereo partly drawn) [Compound 288, butyl (((2-(((3S,6S,9aS)-3-(3-(3-methylpyridin-2-yl)azetidine-1-carbonyl)-5-oxooctahydro-1H-pyrrolo[1,2-a]azepin-6-yl)carbamoyl)benzo [b]thiophen-5-yl)methyl)(phenoxy)phosphoryl)-L-alaninate] the pIC50 was 6.00 to 7.00. CCCOC(=O)[C@@H]1CCCN1P(=O)(Cc1ccc2sc(C(=O)N[C@H]3CCC[C@H]4CC[C@@H](C(=O)N5CC(c6cccnc6)C5)N4C3=O)cc2c1)N1CCC[C@H]1C(=O)OCCC [Compound 310, dipropyl (((2-(((3S,6S,9aS)-5-oxo-3-(3-(pyridin-3-yl)azetidine-1-carbonyl)octahydro-1H-pyrrolo[1,2-a]azepin-6-yl)carbamoyl)benzo [b]thiophen-5-yl)methyl)phosphoryl) (S)-di-L-prolinate] was tested, and the pIC50 was 6.00 to 7.00. CCCOC(=O)[C@H](C)NP(=O)(Cc1ccc2sc(C(=O)N[C@H]3CCC[C@H]4CC[C@@H](C(=O)N5CC(c6cnc(OC)cc6F)C5)N4C3=O)cc2c1)Oc1ccccc1 (stereo partly drawn) [Compound 271, propyl (((2-(((3S,6S,9aS)-3-(3-(4-fluoro-6-methoxypyridin-3-yl)azetidine-1-carbonyl)-5-oxooctahydro-1H-pyrrolo[1,2-a]azepin-6-yl)carbamoyl)benzo [b]thiophen-5-yl)methyl)(phenoxy)phosphoryl)-L-alaninate] gave a pIC50 of 6.00 to 7.00. With CC(C)OC(=O)[C@H](C)NP(=O)(Oc1ccccc1)C(F)(F)c1ccc2sc(C(=O)N[C@H]3CCC[C@H]4CC[C@@H](C(=O)N5CC(c6cccnc6)C5)N4C3=O)cc2c1 (stereo partly drawn) [Compound 248, isopropyl ((difluoro(2-(((3S,6S,9aS)-5-oxo-3-(3-(pyridin-3-yl)azetidine-1-carbonyl)octahydro-1H-pyrrolo[1,2-a]azepin-6-yl)carbamoyl)benzo [b]thiophen-5-yl)methyl)(phenoxy)phosphoryl)-L-alaninate] the pIC50 was less than 5.52. Work on CCCOC(=O)[C@H](C)N[P@](=O)(Oc1ccccc1)[C@@H](F)c1ccc2sc(C(=O)N[C@H]3CCC[C@H]4CC[C@@H](C(=O)N5CC(c6cnccc6N6CCOCC6)C5)N4C3=O)cc2c1 (single isomer, unassigned) [Compound 1046] yielded a pIC50 of 6.00 to 7.00. CCCOC(=O)[C@H](C)NP(=O)(Cc1ccc2sc(C(=O)N[C@H]3CC[C@H](C)C[C@H]4CC[C@@H](C(=O)N5CC(c6cnccc6C)C5)N4C3=O)cc2c1)Oc1ccccc1 (stereo partly drawn) [Compound 286, propyl (((2-(((3S,6S,9S,10aR)-9-methyl-3-(3-(4-methylpyridin-3-yl)azetidine-1-carbonyl)-5-oxodecahydropyrrolo [1,2-a]azocin-6-yl)carbamoyl)benzo [b]thiophen-5-yl)methyl)(phenoxy)phosphoryl)-L-alaninate] was tested, and the pIC50 was greater than 7.00. COc1ccncc1C1CN(C(=O)[C@@H]2CC[C@@H]3CCC[C@H](NC(=O)c4cc5cc([C@H](F)[P@@](=O)(N[C@@H](C)C(=O)OC(C)C)Oc6ccccc6)ccc5s4)C(=O)N32)C1 (single isomer, unassigned) [Compound 1023] gave a pIC50 of 6.00 to 7.00. CCCOC(=O)[C@H](C)NP(=O)(Oc1ccccc1)[C@@H](F)c1ccc2sc(C(=O)N[C@H]3CCC[C@H]4CC[C@@H](C(=O)N5CC(c6cncnc6N6CC[C@H]6COC)C5)N4C3=O)cc2c1 (stereo partly drawn) [Compound 1071, propyl (((R)-fluoro(2-(((3S,6S,9aS)-3-(3-(4-((S)-2-(methoxymethyl)azetidin-1-yl)pyrimidin-5-yl)azetidine-1-carbonyl)-5-oxooctahydro-1H-pyrrolo[1,2-a]azepin-6-yl)carbamoyl)benzo [b]thiophen-5-yl)methyl)(phenoxy)phosphoryl)-L-alaninate] gave a pIC50 greater than 7.00. For CCCOC(=O)[C@H](C)NP(=O)(Oc1ccccc1)[C@H](F)c1ccc2sc(C(=O)N[C@H]3CCC[C@H]4CC[C@@H](C(=O)N5CC(c6cncnc6N(C)C)C5)N4C3=O)cc2c1 (stereo partly drawn) [Compound 1068], the pIC50 was greater than 7.00. For CCCOC(=O)[C@H](C)NP(=O)(Oc1ccccc1)[C@H](F)c1ccc2sc(C(=O)N[C@H]3CCC[C@H]4CC[C@@H](C(=O)N5CC(c6cnccc6N6CC(C#N)C6)C5)N4C3=O)cc2c1 (stereo partly drawn) [Compound 1061, propyl (((S)-(2-(((3S,6S,9aS)-3-(3-(4-(3-cyanoazetidin-1-yl)pyridin-3-yl)azetidine-1-carbonyl)-5-oxooctahydro-1H-pyrrolo[1,2-a]azepin-6-yl)carbamoyl)benzo [b]thiophen-5-yl)fluoromethyl) (phenoxy)phosphoryl)-L-alaninate], the pIC50 was 6.00 to 7.00. Compound CC(C)OC(=O)C(C)(C)NP(=O)(Cc1ccc2sc(C(=O)N[C@H]3CCC[C@H]4CC[C@@H](C(=O)N5CC(c6cccnc6)C5)N4C3=O)cc2c1)Oc1ccccc1 (stereo partly drawn) [Compound 395, isopropyl 2-methyl-2-((((2-(((3S,6S,9aS)-5-oxo-3-(3-(pyridin-3-yl)azetidine-1-carbonyl)octahydro-1H-pyrrolo[1,2-a]azepin-6-yl)carbamoyl)benzo [b]thiophen-5-yl)methyl)(phenoxy)phosphoryl)amino) propanoate] has a pIC50 of 6.00 to 7.00. CCCOC(=O)[C@H](C)N[P@](=O)(Oc1ccccc1)[C@@H](F)c1ccc2sc(C(=O)N[C@H]3CCC[C@H]4CC[C@@H](C(=O)N5CC(c6cnccc6C)C5)N4C3=O)cc2c1 (single isomer, unassigned) [Compound 1035] was tested, and the pIC50 was greater than 7.00. CCCOC(=O)[C@H](C)NP(=O)(Oc1ccccc1)C(F)c1ccc2sc(C(=O)N[C@H]3CCC[C@H]4CC[C@@H](C(=O)N5CC(c6cncnc6N(C)C)C5)N4C3=O)cc2c1 (stereo partly drawn) [Compound 1043] gave a pIC50 greater than 7.00. Work on CCCOC(=O)[C@H](C)NP(=O)(Oc1ccccc1)C(F)c1ccc2sc(C(=O)N[C@H]3CCC[C@H]4CC[C@@H](C(=O)N5CC(c6cc(F)ccc6F)C5)N4C3=O)cc2c1 (stereo partly drawn) [Compound 986, propyl (((2-(((3S,6S,9aS)-3-(3-(2,5-difluorophenyl)azetidine-1-carbonyl)-5-oxooctahydro-1H-pyrrolo[1,2-a]azepin-6-yl)carbamoyl)benzo [b]thiophen-5-yl)fluoromethyl) (phenoxy)phosphoryl)-L-alaninate] yielded a pIC50 of 5.52 to 6.00. Cc1ccncc1C1CN(C(=O)[C@@H]2CC[C@@H]3CCC[C@H](NC(=O)c4cc5cc(C(F)(F)P(=O)(N[C@@H](C)C(=O)OCc6ccccc6)Oc6ccccc6)ccc5s4)C(=O)N32)C1 (stereo partly drawn) [Compound 297, benzyl ((difluoro(2-(((3S,6S,9aS)-3-(3-(4-methylpyridin-3-yl)azetidine-1-carbonyl)-5-oxooctahydro-1H-pyrrolo[1,2-a]azepin-6-yl)carbamoyl)benzo [b]thiophen-5-yl)methyl)(phenoxy)phosphoryl)-L-alaninate] showed a pIC50 of 6.00 to 7.00. COc1ccncc1C1CN(C(=O)[C@@H]2CC[C@@H]3CCC[C@H](NC(=O)c4cc5cc([C@H](F)[P@@](=O)(N[C@@H](C)C(=O)OCC(C)(C)C)Oc6ccccc6)ccc5s4)C(=O)N32)C1 (single isomer, unassigned) [Compound 959] gave a pIC50 greater than 7.00. COCCOCC(=O)SCCOP(=O)(OCCSC(=O)COCCOC)C(F)(F)c1ccc2sc(C(=O)N[C@H]3CCC[C@H]4CC[C@@H](C(=O)N5CC(c6cccnc6)C5)N4C3=O)cc2c1 [Compound 1102, S,S′-((((difluoro(2-(((3S,6S,9aS)-5-oxo-3-(3-(pyridin-3-yl)azetidine-1-carbonyl)octahydro-1H-pyrrolo[1,2-a]azepin-6-yl)carbamoyl)benzo [b]thiophen-5-yl)methyl)phosphoryl)bis(oxy))bis(ethane-2,1-diyl)) bis(2-(2-methoxyethoxy) ethanethioate)] gave a pIC50 greater than 7.00.

— patent publication US20250215029A1 (Recludix Pharma, Inc., priority 2022, published 2025)
